According to ChEMBL document CHEMBL1123199, “Synthesis and structure-activity relationships of naftifine-related allylamine antimycotics” (1986):
Values after ≈ are worked out from the molar mass of the structure shown.

Columns and labels:
Aspergillus fumigatus = test: Antifungal activity measured against Aspergillus fumigatus; assay type: functional
Candida parapsilosis = test: Antifungal activity against Candida parapsilosis.; assay type: functional; settings: Lodderomyces parapsilosis
Epidermophyton floccosum = test: Antifungal activity against Epidermophyton floccosum.; assay type: functional
Microsporum canis = test: Antifungal activity against Microsporum canis; assay type: functional
Sporothrix schenckii = test: Antifungal activity measured against Sporothrix schenck ii.; assay type: functional
[1] = Antifungal activity against Trichophyton mentagrophytes.; assay type: functional, Arthroderma benhamiae; settings: Trichophyton benhamiae
Cavia porcellus [2] = test: In vivo antifungal activity by topical treatment of guinea pig dermatophytosis caused by Trichophyton mentagrophytes at a dose of 0.1%; assay type: functional
Cavia porcellus [3] = test: In vivo antifungal activity by topical treatment of guinea pig dermatophytosis caused by Trichophyton mentagrophytes at a dose of 0.5%; assay type: functional
Cavia porcellus [4] = test: In vivo antifungal activity by topical treatment of guinea pig dermatophytosis caused by Trichophyton mentagrophytes at a dose of 2%; assay type: functional
Trichophyton benhamiae = test: Antifungal activity measured against Trichophyton mentagrophytes; assay type: functional, Arthroderma benhamiae

Structure (SMILES)	MIC (Aspergillus fumigatus) [µg/mL]	MIC (Candida parapsilosis) [µg/mL]	MIC (Epidermophyton floccosum) [µg/mL]	MIC (Microsporum canis) [µg/mL]	MIC (Sporothrix schenckii) [µg/mL]	MIC [1] [µg/mL]	Activity (Cavia porcellus [2]) [%]	Activity (Cavia porcellus [3]) [%]	Activity (Cavia porcellus [4]) [%]	MIC (Trichophyton benhamiae) [µg/mL]
CN(C/C=C/c1ccccc1)Cc1ccc2ccccc2c1	> 100	> 100	25 (≈ 87 µM)	50 (≈ 174 µM)	100 (≈ 348 µM)	25 (≈ 87 µM)	–	–	–	–
CN(C/C=C/c1ccccc1)Cc1ccc2c(c1)C1CCC2C1 (stereo not drawn)	> 100	> 100	12.5 (≈ 41.2 µM)	50 (≈ 165 µM)	100 (≈ 330 µM)	6.2 (≈ 20.4 µM)	–	–	–	–
CN(C/C=C/c1cccs1)Cc1cccc2ccccc12	100 (≈ 341 µM)	6.2 (≈ 21.1 µM)	0.2 (≈ 0.682 µM)	0.2 (≈ 0.682 µM)	3.1 (≈ 10.6 µM)	–	13	56	96	0.1 (≈ 0.341 µM)
CN(C/C=C/c1ccc(Cl)cc1)Cc1cccc2ccccc12	> 100	100 (≈ 311 µM)	0.4 (≈ 1.24 µM)	0.4 (≈ 1.24 µM)	3.1 (≈ 9.63 µM)	–	0	25	44	0.2 (≈ 0.621 µM)
CN(C/C=C/c1ccccc1)CC1=CCc2ccccc21	> 100	> 100	12.5 (≈ 45.4 µM)	3.1 (≈ 11.3 µM)	> 100	1.6 (≈ 5.81 µM)	–	–	–	–
CN(C/C=C/C1=CCCC1)Cc1cccc2ccccc12	50 (≈ 180 µM)	6.2 (≈ 22.3 µM)	0.2 (≈ 0.721 µM)	0.2 (≈ 0.721 µM)	3.1 (≈ 11.2 µM)	–	30	91	100	0.1 (≈ 0.36 µM)
COc1ccc2c(CN(C)C/C=C/c3ccccc3)cccc2c1	> 100	> 100	12.5 (≈ 39.4 µM)	12.5 (≈ 39.4 µM)	25 (≈ 78.8 µM)	1.6 (≈ 5.04 µM)	–	–	–	–
CN(C/C=C/c1cccc2ccccc12)Cc1ccccc1	> 100	> 100	100 (≈ 348 µM)	100 (≈ 348 µM)	100 (≈ 348 µM)	100 (≈ 348 µM)	–	–	–	–
CN(C/C=C/c1ccccc1)Cc1cccc2c1CCCC2	> 100	50 (≈ 172 µM)	0.8 (≈ 2.75 µM)	0.8 (≈ 2.75 µM)	3.1 (≈ 10.6 µM)	–	0	22	50	0.4 (≈ 1.37 µM)
CN(C/C=C/c1ccccc1)c1cccc2ccccc12	> 100	> 100	> 100	> 100	> 100	6.2 (≈ 22.7 µM)	–	–	–	–
CN(C/C=C/C(=O)O)Cc1cccc2ccccc12	< 100	< 100	< 100	< 100	< 100	< 100	–	–	–	–
CC(c1cccc2ccccc12)N(C)C/C=C/c1ccccc1 (stereo not drawn)	50 (≈ 166 µM)	3.1 (≈ 10.3 µM)	0.2 (≈ 0.663 µM)	0.4 (≈ 1.33 µM)	3.1 (≈ 10.3 µM)	–	15	75	100	0.1 (≈ 0.332 µM)
CN(C/C=C/c1ccccn1)Cc1cccc2ccccc12	> 100	> 100	12.5 (≈ 43.3 µM)	12.5 (≈ 43.3 µM)	100 (≈ 347 µM)	–	0	0	7	< 1.6
CN(CC/C=C/c1ccccc1)Cc1cccc2ccccc12	100 (≈ 332 µM)	> 100	6.2 (≈ 20.6 µM)	3.1 (≈ 10.3 µM)	100 (≈ 332 µM)	3.1 (≈ 10.3 µM)	–	–	–	–
CN(C/C=C\c1ccccc1)Cc1cccc2ccccc12	25 (≈ 87 µM)	3.1 (≈ 10.8 µM)	0.2 (≈ 0.696 µM)	0.2 (≈ 0.696 µM)	3.1 (≈ 10.8 µM)	–	34	47	100	0.1 (≈ 0.348 µM)
CN(C/C=C/CCc1ccccc1)Cc1cccc2ccccc12	> 100	> 100	12.5 (≈ 39.6 µM)	12.5 (≈ 39.6 µM)	> 100	1.6 (≈ 5.07 µM)	–	–	–	–

Structure (SMILES)	MIC (Aspergillus fumigatus) [µg/mL]	MIC (Candida parapsilosis) [µg/mL]	MIC (Epidermophyton floccosum) [µg/mL]	MIC (Microsporum canis) [µg/mL]	MIC (Sporothrix schenckii) [µg/mL]	MIC [1] [µg/mL]	Activity (Cavia porcellus [2]) [%]	Activity (Cavia porcellus [3]) [%]	Activity (Cavia porcellus [4]) [%]	MIC (Trichophyton benhamiae) [µg/mL]
C(=C\c1ccccc1)/COCc1cccc2ccccc12	> 100	> 100	> 100	> 100	> 100	3.1 (≈ 11.3 µM)	–	–	–	–
CN(C/C=C/c1ccccc1)Cc1ccccc1	> 100	> 100	> 100	> 100	> 100	> 100	–	–	–	–
CN(C/C=C/c1ccccc1)CCc1cccc2ccccc12	100 (≈ 332 µM)	50 (≈ 166 µM)	25 (≈ 82.9 µM)	50 (≈ 166 µM)	25 (≈ 82.9 µM)	12.5 (≈ 41.5 µM)	–	–	–	–
CN(C/C=C/c1ccccc1)C(=O)c1cccc2ccccc12	12.5 (≈ 41.5 µM)	> 100	≤ 1.6	≤ 1.6	25 (≈ 82.9 µM)	–	0	0	60	≤ 1.6
CCCCCOC(=O)/C=C/CN(C)Cc1cccc2ccccc12	50 (≈ 154 µM)	25 (≈ 76.8 µM)	< 1.6	< 1.6	< 1.6	–	0	0	10	< 1.6
CN(C/C=C/c1ccccc1)C1CCCc2ccccc21 (stereo not drawn)	> 100	> 100	50 (≈ 180 µM)	50 (≈ 180 µM)	100 (≈ 360 µM)	12.5 (≈ 45.1 µM)	–	–	–	–
CN(CCCc1ccccc1)Cc1cccc2ccccc12	> 100	> 100	> 100	> 100	> 100	12.5 (≈ 43.2 µM)	–	–	–	–
CN(C/C=C/c1ccc(F)cc1)Cc1cccc2ccccc12	25 (≈ 81.9 µM)	3.1 (≈ 10.2 µM)	0.1 (≈ 0.327 µM)	0.2 (≈ 0.655 µM)	1.6 (≈ 5.24 µM)	–	21	82	100	0.1 (≈ 0.327 µM)
CN(C/C=C/c1ccsc1)Cc1cccc2ccccc12	50 (≈ 170 µM)	6.2 (≈ 21.1 µM)	0.1 (≈ 0.341 µM)	0.2 (≈ 0.682 µM)	3.1 (≈ 10.6 µM)	–	7	47	100	0.1 (≈ 0.341 µM)
CN(C/C=C/C1=CCCCCC1)Cc1cccc2ccccc12	25 (≈ 81.8 µM)	1.6 (≈ 5.24 µM)	0.1 (≈ 0.327 µM)	0.05 (≈ 0.164 µM)	0.8 (≈ 2.62 µM)	–	29	85	100	0.05 (≈ 0.164 µM)
CN(C/C=C/c1ccccc1)Cc1ccnc2ccccc12	> 100	2.5 (≈ 8.67 µM)	1.6 (≈ 5.55 µM)	1.6 (≈ 5.55 µM)	12.5 (≈ 43.3 µM)	–	0	0	3	1.6 (≈ 5.55 µM)
CN(C/C=C/c1ccccc1)CC1CCCc2ccccc21 (stereo not drawn)	> 100	> 100	50 (≈ 172 µM)	50 (≈ 172 µM)	100 (≈ 343 µM)	6.2 (≈ 21.3 µM)	–	–	–	–
CN(C/C=C/Cc1ccccc1)Cc1cccc2ccccc12	> 100	> 100	50 (≈ 166 µM)	50 (≈ 166 µM)	> 100	50 (≈ 166 µM)	–	–	–	–
CN(C/C=C/c1ccccc1)Cc1c(O)ccc2ccccc12	> 100	> 100	50 (≈ 165 µM)	50 (≈ 165 µM)	100 (≈ 330 µM)	25 (≈ 82.4 µM)	–	–	–	–
CCOC(=O)/C=C/CN(C)Cc1cccc2ccccc12	> 100	> 100	3.1 (≈ 10.9 µM)	6.25 (≈ 22.1 µM)	12.5 (≈ 44.1 µM)	–	0	0	16	< 1.6
